Source: the NIST ThermoML archive (doi:10.1016/j.jct.2013.11.036)

Experiment: mn = molality of the nth substance listed, in mol/kg
Conditions: Liquid

CCCO [propan-1-ol] + O
Conditions | mass density [kg/m3]
292.05 K, 101 kPa, Pycnometric method, m1 = 0.869 | 991.42
293.45 K, 101 kPa, Pycnometric method, m1 = 2.936 | 980.4
294.85 K, 101 kPa, Pycnometric method, m1 = 56.35 | 851.23
295.15 K, 101 kPa, Pycnometric method, m1 = 0.869 | 990.4
298.15 K, 101 kPa, Pycnometric method, m1 = 0.869 | 989.5
298.15 K, 101 kPa, Pycnometric method, m1 = 2.936 | 978.54
298.15 K, 5000 kPa, Constant-volume piezometry, m1 = 0.869 | 990.5
298.15 K, 5000 kPa, Constant-volume piezometry, m1 = 2.465 | 980.7
298.15 K, 10000 kPa, Constant-volume piezometry, m1 = 0.869 | 992.6
298.15 K, 10000 kPa, Constant-volume piezometry, m1 = 2.465 | 982.7
298.15 K, 20000 kPa, Constant-volume piezometry, m1 = 0.869 | 996.7
298.15 K, 20000 kPa, Constant-volume piezometry, m1 = 2.465 | 986.6
298.15 K, 30000 kPa, Constant-volume piezometry, m1 = 0.869 | 1000.6
298.15 K, 30000 kPa, Constant-volume piezometry, m1 = 2.465 | 990.3
298.15 K, 40000 kPa, Constant-volume piezometry, m1 = 0.869 | 1004.4
298.15 K, 40000 kPa, Constant-volume piezometry, m1 = 2.465 | 993.8
302.13 K, 2844 kPa, Constant-volume piezometry, m1 = 14.38 | 910.6
302.13 K, 7747 kPa, Constant-volume piezometry, m1 = 14.38 | 913.1
302.13 K, 13631 kPa, Constant-volume piezometry, m1 = 14.38 | 915.8
302.8 K, 101 kPa, Pycnometric method, m1 = 2.531 | 974.74
302.8 K, 101 kPa, Pycnometric method, m1 = 7.407 | 941.25
302.8 K, 101 kPa, Pycnometric method, m1 = 14.38 | 908.75
303.15 K, 5000 kPa, Constant-volume piezometry, m1 = 0.869 | 988.8
303.15 K, 5000 kPa, Constant-volume piezometry, m1 = 2.465 | 978.4
303.15 K, 10000 kPa, Constant-volume piezometry, m1 = 0.869 | 990.9
303.15 K, 10000 kPa, Constant-volume piezometry, m1 = 2.465 | 980.5
303.15 K, 20000 kPa, Constant-volume piezometry, m1 = 0.869 | 995
303.15 K, 20000 kPa, Constant-volume piezometry, m1 = 2.465 | 984.4
303.15 K, 30000 kPa, Constant-volume piezometry, m1 = 0.869 | 998.9
303.15 K, 30000 kPa, Constant-volume piezometry, m1 = 2.465 | 988
303.15 K, 40000 kPa, Constant-volume piezometry, m1 = 0.869 | 1002.7
303.15 K, 40000 kPa, Constant-volume piezometry, m1 = 2.465 | 991.6
303.2 K, 3334 kPa, Constant-volume piezometry, m1 = 2.531 | 975.9
303.2 K, 7708 kPa, Constant-volume piezometry, m1 = 2.531 | 977.7
304.65 K, 101 kPa, Pycnometric method, m1 = 2.936 | 975.69
306 K, 101 kPa, Pycnometric method, m1 = 56.35 | 842.18
307.99 K, 2942 kPa, Constant-volume piezometry, m1 = 56.35 | 872.9
307.99 K, 14220 kPa, Constant-volume piezometry, m1 = 56.35 | 880.4
308.55 K, 101 kPa, Pycnometric method, m1 = 0.869 | 986.52
312.07 K, 2844 kPa, Constant-volume piezometry, m1 = 7.407 | 936.5
312.07 K, 6865 kPa, Constant-volume piezometry, m1 = 7.407 | 938.7
312.07 K, 12160 kPa, Constant-volume piezometry, m1 = 7.407 | 941.1
312.65 K, 101 kPa, Pycnometric method, m1 = 2.531 | 969.82
312.65 K, 101 kPa, Pycnometric method, m1 = 7.407 | 934.48
312.65 K, 101 kPa, Pycnometric method, m1 = 14.38 | 901.37
313.75 K, 101 kPa, Pycnometric method, m1 = 2.936 | 971.27
320.75 K, 101 kPa, Pycnometric method, m1 = 56.35 | 829.47
322.35 K, 101 kPa, Pycnometric method, m1 = 2.936 | 966.49
323.15 K, 5000 kPa, Constant-volume piezometry, m1 = 0.869 | 980.8
323.15 K, 5000 kPa, Constant-volume piezometry, m1 = 2.465 | 968.2
323.15 K, 10000 kPa, Constant-volume piezometry, m1 = 0.869 | 982.9
323.15 K, 10000 kPa, Constant-volume piezometry, m1 = 2.465 | 970.3
323.15 K, 20000 kPa, Constant-volume piezometry, m1 = 0.869 | 986.9
323.15 K, 20000 kPa, Constant-volume piezometry, m1 = 2.465 | 974.3
323.15 K, 30000 kPa, Constant-volume piezometry, m1 = 0.869 | 990.8
323.15 K, 30000 kPa, Constant-volume piezometry, m1 = 2.465 | 978
323.15 K, 40000 kPa, Constant-volume piezometry, m1 = 0.869 | 994.5
323.15 K, 40000 kPa, Constant-volume piezometry, m1 = 2.465 | 981.6
326.05 K, 101 kPa, Pycnometric method, m1 = 2.531 | 962.17
326.05 K, 101 kPa, Pycnometric method, m1 = 7.407 | 924.78
326.05 K, 101 kPa, Pycnometric method, m1 = 14.38 | 890.78
331.05 K, 101 kPa, Pycnometric method, m1 = 56.35 | 820.42
340.85 K, 101 kPa, Pycnometric method, m1 = 2.531 | 952.6
340.85 K, 101 kPa, Pycnometric method, m1 = 7.407 | 913.42
340.85 K, 101 kPa, Pycnometric method, m1 = 14.38 | 878.68
342.49 K, 2353 kPa, Constant-volume piezometry, m1 = 14.38 | 877.9
342.49 K, 6159 kPa, Constant-volume piezometry, m1 = 14.38 | 880.3
342.49 K, 10199 kPa, Constant-volume piezometry, m1 = 14.38 | 882.7
342.49 K, 14455 kPa, Constant-volume piezometry, m1 = 14.38 | 885.4
343.48 K, 2942 kPa, Constant-volume piezometry, m1 = 7.407 | 913.7
343.48 K, 6767 kPa, Constant-volume piezometry, m1 = 7.407 | 915.8
343.48 K, 12690 kPa, Constant-volume piezometry, m1 = 7.407 | 919
343.94 K, 2353 kPa, Constant-volume piezometry, m1 = 2.531 | 950.6
343.94 K, 6374 kPa, Constant-volume piezometry, m1 = 2.531 | 952.5
343.94 K, 10787 kPa, Constant-volume piezometry, m1 = 2.531 | 954.3
347.63 K, 3668 kPa, Constant-volume piezometry, m1 = 56.35 | 838
347.63 K, 10120 kPa, Constant-volume piezometry, m1 = 56.35 | 843.1
348.15 K, 5000 kPa, Constant-volume piezometry, m1 = 0.869 | 967.9
348.15 K, 5000 kPa, Constant-volume piezometry, m1 = 2.465 | 952.7
348.15 K, 10000 kPa, Constant-volume piezometry, m1 = 0.869 | 970
348.15 K, 10000 kPa, Constant-volume piezometry, m1 = 2.465 | 954.9
348.15 K, 20000 kPa, Constant-volume piezometry, m1 = 0.869 | 974.1
348.15 K, 20000 kPa, Constant-volume piezometry, m1 = 2.465 | 959.1
348.15 K, 30000 kPa, Constant-volume piezometry, m1 = 0.869 | 978
348.15 K, 30000 kPa, Constant-volume piezometry, m1 = 2.465 | 963.1
348.15 K, 40000 kPa, Constant-volume piezometry, m1 = 0.869 | 981.8
348.15 K, 40000 kPa, Constant-volume piezometry, m1 = 2.465 | 966.8
349.85 K, 101 kPa, Pycnometric method, m1 = 2.531 | 946.25
349.85 K, 101 kPa, Pycnometric method, m1 = 7.407 | 906.29
349.85 K, 101 kPa, Pycnometric method, m1 = 14.38 | 870.71
352.05 K, 101 kPa, Pycnometric method, m1 = 56.35 | 801.03
373.15 K, 5000 kPa, Constant-volume piezometry, m1 = 0.869 | 951.6
373.15 K, 5000 kPa, Constant-volume piezometry, m1 = 2.465 | 934.2
373.15 K, 10000 kPa, Constant-volume piezometry, m1 = 0.869 | 953.9
373.15 K, 10000 kPa, Constant-volume piezometry, m1 = 2.465 | 937
373.15 K, 20000 kPa, Constant-volume piezometry, m1 = 0.869 | 958.3
373.15 K, 20000 kPa, Constant-volume piezometry, m1 = 2.465 | 941.3
373.15 K, 30000 kPa, Constant-volume piezometry, m1 = 0.869 | 962.4
373.15 K, 30000 kPa, Constant-volume piezometry, m1 = 2.465 | 945.7
373.15 K, 40000 kPa, Constant-volume piezometry, m1 = 0.869 | 966.3
373.15 K, 40000 kPa, Constant-volume piezometry, m1 = 2.465 | 949.7
